Consider 4 compounds from patent publication US9334269B2, “Carboxamides as inhibitors of voltage-gated sodium channels” (AMGEN INC., priority 2010, dated 2016).

In this experiment the target is T1, human Nav1.7 (hNav1.7) (Homo sapiens, UniProt Q15858).
T1 construct: expressed in transfected cells
Put plainly: hNav1.7 whole-cell patch-clamp electrophysiology (automated PatchXpress 7000A or manual) in stably expressing 293 cells. The class given is cell-based. As to conditions: human Nav1.7 stably expressed in 293 cells; whole-cell patch clamp; average IC50 from Hill fit. Put shortly: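 Stably transfected 293 cells lacking endogenous sodium channels; peak current evoked by depolarizing pulses during increasing compound concentrations, automated at ~20% fractional inactivation, or manually at −140 mV (resting) and ~20% inactivation. Block taken at steady state, corrected for rundown; IC50 by Hill fit.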

T1 sequence (Q15858 whole entry): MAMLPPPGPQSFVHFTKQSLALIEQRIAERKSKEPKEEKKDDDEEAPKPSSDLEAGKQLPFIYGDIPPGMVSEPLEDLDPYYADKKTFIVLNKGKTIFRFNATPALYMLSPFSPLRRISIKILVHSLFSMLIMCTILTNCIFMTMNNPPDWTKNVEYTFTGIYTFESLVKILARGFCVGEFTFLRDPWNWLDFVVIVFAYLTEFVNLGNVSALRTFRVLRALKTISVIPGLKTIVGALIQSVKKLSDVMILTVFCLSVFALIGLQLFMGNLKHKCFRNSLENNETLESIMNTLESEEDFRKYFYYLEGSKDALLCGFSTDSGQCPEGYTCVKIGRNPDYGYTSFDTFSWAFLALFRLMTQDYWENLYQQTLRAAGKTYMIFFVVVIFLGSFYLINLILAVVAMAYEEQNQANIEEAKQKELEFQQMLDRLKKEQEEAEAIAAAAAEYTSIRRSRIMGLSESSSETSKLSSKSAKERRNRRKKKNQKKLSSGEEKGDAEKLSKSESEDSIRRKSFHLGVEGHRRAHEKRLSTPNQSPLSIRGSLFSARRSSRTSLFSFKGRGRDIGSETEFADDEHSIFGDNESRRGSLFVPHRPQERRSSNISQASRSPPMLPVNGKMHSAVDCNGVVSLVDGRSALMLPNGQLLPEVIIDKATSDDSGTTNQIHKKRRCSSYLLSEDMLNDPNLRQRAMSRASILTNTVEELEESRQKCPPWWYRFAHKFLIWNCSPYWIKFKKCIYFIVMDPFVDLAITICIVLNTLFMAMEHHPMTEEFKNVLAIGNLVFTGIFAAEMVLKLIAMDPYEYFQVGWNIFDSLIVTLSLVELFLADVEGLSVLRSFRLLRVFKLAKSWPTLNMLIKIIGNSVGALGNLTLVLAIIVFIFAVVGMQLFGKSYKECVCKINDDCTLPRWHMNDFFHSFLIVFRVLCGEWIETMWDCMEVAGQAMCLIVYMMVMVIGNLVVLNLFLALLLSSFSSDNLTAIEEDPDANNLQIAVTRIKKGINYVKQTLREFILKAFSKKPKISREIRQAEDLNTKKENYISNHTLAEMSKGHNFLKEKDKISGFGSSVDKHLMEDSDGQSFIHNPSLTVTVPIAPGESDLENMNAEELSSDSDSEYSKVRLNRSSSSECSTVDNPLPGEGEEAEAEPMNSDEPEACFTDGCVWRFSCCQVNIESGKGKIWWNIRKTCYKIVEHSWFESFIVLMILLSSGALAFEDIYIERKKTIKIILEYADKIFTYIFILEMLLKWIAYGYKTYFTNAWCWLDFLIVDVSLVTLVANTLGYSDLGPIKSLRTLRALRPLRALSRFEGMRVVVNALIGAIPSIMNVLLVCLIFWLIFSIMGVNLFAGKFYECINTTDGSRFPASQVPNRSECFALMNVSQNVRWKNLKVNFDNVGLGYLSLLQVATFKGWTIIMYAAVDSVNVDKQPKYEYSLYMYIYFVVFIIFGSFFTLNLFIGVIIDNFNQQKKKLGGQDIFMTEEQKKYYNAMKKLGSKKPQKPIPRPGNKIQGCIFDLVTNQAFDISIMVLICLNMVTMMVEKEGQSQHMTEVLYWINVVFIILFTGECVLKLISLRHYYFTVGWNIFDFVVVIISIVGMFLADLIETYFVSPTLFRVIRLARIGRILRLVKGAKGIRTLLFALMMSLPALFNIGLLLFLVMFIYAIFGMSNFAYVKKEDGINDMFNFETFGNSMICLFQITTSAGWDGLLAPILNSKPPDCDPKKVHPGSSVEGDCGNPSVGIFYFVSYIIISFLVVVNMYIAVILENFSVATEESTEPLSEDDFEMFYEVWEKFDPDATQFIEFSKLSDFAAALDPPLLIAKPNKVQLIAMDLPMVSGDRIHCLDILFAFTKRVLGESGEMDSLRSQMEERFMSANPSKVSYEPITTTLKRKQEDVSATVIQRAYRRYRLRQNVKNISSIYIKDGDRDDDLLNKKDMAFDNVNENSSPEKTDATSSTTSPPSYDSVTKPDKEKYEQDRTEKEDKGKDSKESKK

As to `CNC(=O)c1cccc(Nc2ccnc(N3CC(Oc4ccc(F)cc4)C3)c2)c1` [Example V, 3-((2-(3-(4-fluorophenoxy)-1-azetidinyl)-4-pyridinyl)amino)-N-methylbenzamide], 5.78 µM corresponded to half-maximal inhibition (IC50).

For `CNC(=O)c1cccc(Nc2cccc(N3CC(Oc4ccc(Cl)cc4F)C3)n2)c1` [Example W, 3-((6-(3-(4-chloro-2-fluorophenoxy)-1-azetidinyl)-2-pyridinyl)amino)-N-methylbenzamide], the IC50 worked out at 2.78 µM.

Consider `CNC(=O)c1cc(Nc2cccc(N3CC(Oc4ccc(Cl)cc4F)C3)n2)ccc1F` [Example X, 5-((6-(3-(4-chloro-2-fluorophenoxy)-1-azetidinyl)-2-pyridinyl)amino)-2-fluoro-N-methylbenzamide], for which the IC50 was determined as 4.46 µM.

For `CNC(=O)c1cccc(Nc2cc(N3CC(Oc4ccc(Cl)cc4F)C3)ncn2)c1` [Example Z, 3-((6-(3-(4-chloro-2-fluorophenoxy)-1-azetidinyl)-4-pyrimidinyl)amino)-N-methylbenzamide], half-maximal inhibition (IC50) was put at 12.7 µM.

As a reminder, the IC50 is the point on the concentration scale where inhibition reaches its midpoint. Low readings indicate inhibition by little substance, high ones a need for much substance.
